Values quoted from earlier work as cited in patent US6200602A, “Composition for enhanced uptake of polar drugs from the colon” (priority 1995, dated 2001).

Assays:
[1] = oral / gastrointestinal tract
[2] = literature knowledge
[3] = absorption enhancer in the gastrointestinal tract
[4] = rat intestine; sodium caprate and sodium glycocholate as enhancers

Compound	absorption when dosed orally [1]	further results
C[C@H](CS)C(=O)N1CCC[C@H]1C(=O)O [captopril]	poor or erratic absorption	–
CN/C(=N/CCSCc1nc[nH]c1C)NC#N [cimetidine]	poor or erratic absorption	–
O=P(O)(O)C(Cl)(Cl)P(=O)(O)O [clodronate]	poor or erratic absorption	–
CNC(=C[N+](=O)[O-])NCCSCc1ccc(CN(C)C)o1 [ranitidine]	poor or erratic absorption	–
CCCCCCCCCC(=O)[O-].[Na+] [sodium caprate]	–	absorption promoting effect [2]: can act as an absorption promoting agent
O=C(O)c1cc(=O)c2c(OCC(O)COc3cccc4oc(C(=O)O)cc(=O)c34)cccc2o1 [sodium cromoglycate]	poor or erratic absorption	–
C[C@H](CCC(=O)O)[C@H]1CC[C@H]2[C@@H]3CC[C@@H]4C[C@H](O)CC[C@]4(C)[C@H]3C[C@H](O)[C@]12C [sodium deoxycholate]	–	side effect and toxicity [3]: associated with potential side effect (diarrhoea) and toxicity; absorption promoting effect [2]: known to act as an absorption enhancer in the gastrointestinal tract
insulin: polypeptide drug	–	preferred site for insulin absorption [4]: the ileum was the most preferred site for insulin absorption
